The target in one assay is T1, GLP-1 receptor (Homo sapiens, UniProt P43220).
T1 construct: expressed in transfected cells; host or cells: HEK293
Nature of the assay: cAMP induction, firefly luciferase reporter assay, GLP-1 receptor. It counts as cell-based. The following applies: for Activity at GLP-1 Receptor % Relative Activity: compared to native GLP-1. As for the experimental part: (§1) The ability of each peptide to induce cAMP was measured in a firefly luciferase-based reporter assay.
(§2) At the end of the incubation, 100 μL of LucLite luminescence substrate reagent (Perkin Elmer, Wellesley, Mass.) were added to each well. The plate was shaken briefly, incubated 10 min in the dark and light output was measured on MicroBeta-1450 liquid scintillation counter (Perkin-Elmer, Wellesley, Mass.).

A further assay deals with T2, glucagon receptor (Homo sapiens, UniProt P47871).
T2 construct: expressed in transfected cells; host or cells: HEK293
T2 sequence (P47871 26-477): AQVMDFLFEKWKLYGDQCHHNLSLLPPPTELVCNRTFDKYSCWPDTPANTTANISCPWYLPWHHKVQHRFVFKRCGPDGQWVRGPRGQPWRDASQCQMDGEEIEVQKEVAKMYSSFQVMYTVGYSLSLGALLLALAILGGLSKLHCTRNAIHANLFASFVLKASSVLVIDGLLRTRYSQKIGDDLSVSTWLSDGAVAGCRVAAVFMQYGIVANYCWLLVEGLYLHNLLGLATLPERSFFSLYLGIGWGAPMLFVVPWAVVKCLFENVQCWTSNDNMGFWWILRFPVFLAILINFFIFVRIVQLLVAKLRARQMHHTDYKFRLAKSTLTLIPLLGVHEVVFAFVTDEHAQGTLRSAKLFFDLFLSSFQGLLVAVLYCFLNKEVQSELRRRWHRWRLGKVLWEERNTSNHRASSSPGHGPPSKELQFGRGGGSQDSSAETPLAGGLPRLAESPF
Nature of the assay: cAMP induction, firefly luciferase reporter assay, glucagon receptor. It counts as cell-based. Conditions: for Activity at Glucagon Receptor % Relative Activity: compared to native glucagon. As for the experimental part: as §1, §2

Setting [1] is: Activity at GLP-1 Receptor EC50 (nM), Table 2A.
Where [2] appears, read: EC50 (nM) at GLP-1 Receptor, Table 7B.

Starred links: 1 amine or outer side, 2 acyl side, 3 side chain; linkers in the order of their positions; H or OH if unused. Non-standard residues stand in square brackets, D forms with d. Residues, ends and D or L forms follow the SMILES beside them. Groups on a side chain read outwards from the residue. *: point of attachment. γGlu = O=C(O)[C@H](CCC(=O)[*:2])N[*:1]; Palmitoyl = CCCCCCCCCCCCCCCC(=O)*; Aib = CC(C)(N)C(=O)O

T1 sequence (P43220 24-463): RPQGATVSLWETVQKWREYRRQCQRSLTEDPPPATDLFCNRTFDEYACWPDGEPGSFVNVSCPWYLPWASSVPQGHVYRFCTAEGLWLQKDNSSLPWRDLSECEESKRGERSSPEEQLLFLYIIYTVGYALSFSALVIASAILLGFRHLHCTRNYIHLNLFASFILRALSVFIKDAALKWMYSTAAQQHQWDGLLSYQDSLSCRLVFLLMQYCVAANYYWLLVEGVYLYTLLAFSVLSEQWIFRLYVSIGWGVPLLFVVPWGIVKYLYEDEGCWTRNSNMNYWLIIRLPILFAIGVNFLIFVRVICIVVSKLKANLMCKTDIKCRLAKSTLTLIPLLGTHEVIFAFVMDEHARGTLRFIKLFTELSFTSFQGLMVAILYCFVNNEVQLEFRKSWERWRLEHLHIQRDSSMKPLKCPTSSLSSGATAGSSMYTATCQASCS

Take `CCCCCCCCCCCCCCCC(=O)N[C@@H](CCC(=O)NCCCC[C@H](NC(=O)[C@H](CC(=O)O)NC(=O)[C@H](CO)NC(=O)[C@@H](NC(=O)[C@H](Cc1ccccc1)NC(=O)[C@@H](NC(=O)CNC(=O)[C@H](CCC(N)=O)NC(=O)[C@@H](CO)NC(=O)[C@@H](N)Cc1c[nH]cn1)[C@@H](C)O)[C@@H](C)O)C(=O)N[C@@H](CO)C(=O)N[C@@H](CCCCN)C(=O)N[C@@H](Cc1ccc(O)cc1)C(=O)N[C@@H](CC(C)C)C(=O)N[C@@H](CC(=O)O)C(=O)N[C@@H](CCC(=O)O)C(=O)N[C@@H](CCC(N)=O)C(=O)N[C@@H](C)C(=O)N[C@@H](C)C(=O)N[C@@H](CCCCN)C(=O)N[C@@H](CCC(=O)O)C(=O)N[C@@H](Cc1ccccc1)C(=O)N[C@H](C(=O)N[C@@H](CS)C(=O)N[C@@H](Cc1c[nH]c2ccccc12)C(=O)N[C@@H](CC(C)C)C(=O)N[C@@H](CC(C)C)C(=O)N[C@@H](CC(=O)O)C(=O)N[C@H](C(=O)O)[C@@H](C)O)[C@@H](C)CC)C(=O)O` [compound 76]: the EC50 on GLP-1 receptor (Activity at GLP-1 Receptor EC50 [nM], Table 3C) is 0.003 nM. Moreover, the “Activity at GLP-1 Receptor % Relative Activity” value on GLP-1 receptor (Table 3C) is on record as 1200%. Moreover, at glucagon receptor (Table 3C), the “Activity at Glucagon Receptor % Relative Activity” value came to 1500%.
For the compound `CCCCCCCCCCCCCCCC(=O)N[C@@H](CCC(=O)NCCCC[C@H](NC(=O)[C@H](CC(=O)O)NC(=O)[C@H](CO)NC(=O)[C@@H](NC(=O)[C@H](Cc1ccccc1)NC(=O)[C@@H](NC(=O)CNC(=O)[C@H](CCC(N)=O)NC(=O)[C@@H](CO)NC(=O)[C@@H](N)Cc1c[nH]cn1)[C@@H](C)O)[C@@H](C)O)C(=O)N[C@@H](CO)C(=O)N[C@@H](CCCCN)C(=O)N[C@@H](Cc1ccc(O)cc1)C(=O)N[C@@H](CC(C)C)C(=O)N[C@@H](CC(=O)O)C(=O)N[C@@H](CCC(=O)O)C(=O)N[C@@H](CCC(N)=O)C(=O)N[C@@H](C)C(=O)N[C@@H](C)C(=O)N[C@@H](CCCCN)C(=O)N[C@@H](CCC(=O)O)C(=O)N[C@@H](Cc1ccccc1)C(=O)N[C@H](C(=O)N[C@@H](CS)C(=O)N[C@@H](Cc1c[nH]c2ccccc12)C(=O)N[C@@H](CC(C)C)C(=O)N[C@@H](CC(C)C)C(=O)N[C@@H](CC(=O)O)C(=O)N[C@H](C(=O)NCC(=O)O)[C@@H](C)O)[C@@H](C)CC)C(=O)O` [compound 55], the “Activity at GLP-1 Receptor % Relative Activity” value on GLP-1 receptor (Table 5) came to 16%. Also, on glucagon receptor (Table 5), the “Activity at Glucagon Receptor % Relative Activity” value is recorded as 7%.
In the case of `CSCC[C@H](NC(=O)[C@H](CC(C)C)NC(=O)[C@H](Cc1c[nH]c2ccccc12)NC(=O)[C@H](CCC(N)=O)NC(=O)[C@@H](NC(=O)[C@H](Cc1ccccc1)NC(=O)[C@H](CCC(=O)O)NC(=O)[C@H](CCCCN)NC(=O)[C@H](C)NC(=O)[C@H](CCCNC(=N)N)NC(=O)[C@H](CCCCN)NC(=O)[C@H](CCC(=O)O)NC(=O)[C@H](CC(=O)O)NC(=O)[C@H](CC(C)C)NC(=O)[C@H](Cc1ccc(O)cc1)NC(=O)[C@H](CCCCN)NC(=O)[C@H](CO)NC(=O)[C@H](Cc1ccc(O)cc1)NC(=O)[C@H](CC(=O)O)NC(=O)[C@H](CO)NC(=O)[C@@H](NC(=O)[C@H](Cc1ccccc1)NC(=O)[C@@H](NC(=O)CNC(=O)[C@H](CCC(N)=O)NC(=O)[C@@H](CO)NC(=O)[C@@H](N)Cc1c[nH]cn1)[C@@H](C)O)[C@@H](C)O)C(C)C)C(=O)N[C@@H](CC(N)=O)C(=O)N[C@H](C(N)=O)[C@@H](C)O` [compound 20], the EC50 at GLP-1 receptor (setting [1]) stood at 0.284 nM; on glucagon receptor (Activity at Glucagon Receptor EC50 (nM), Table 2A) it was 0.054 nM.
On GLP-1 receptor (setting [2]), `CCCCCCCCCCCCCCCC(=O)N[C@@H](CCC(=O)NCCCC[C@H](NC(=O)[C@H](CC(=O)O)NC(=O)[C@H](CO)NC(=O)[C@@H](NC(=O)[C@H](Cc1ccccc1)NC(=O)[C@@H](NC(=O)CNC(=O)[C@H](CCC(N)=O)NC(=O)C(C)(C)NC(=O)[C@@H](N)Cc1c[nH]cn1)[C@@H](C)O)[C@@H](C)O)C(=O)N[C@@H](CO)C(=O)N[C@@H](CCCCN)C(=O)N[C@@H](Cc1ccc(O)cc1)C(=O)N[C@@H](CC(C)C)C(=O)N[C@@H](CC(=O)O)C(=O)N[C@@H](CCC(=O)O)C(=O)N[C@@H](CCC(=O)O)C(=O)N[C@@H](C)C(=O)N[C@H](C(=O)N[C@@H](CCCNC(=N)N)C(=O)N[C@@H](CC(C)C)C(=O)N[C@@H](Cc1ccccc1)C(=O)N[C@H](C(=O)N[C@@H](CCC(=O)O)C(=O)N[C@@H](Cc1c[nH]c2ccccc12)C(=O)N[C@@H](CC(C)C)C(=O)N[C@@H](CCSC)C(=O)N[C@@H](CC(N)=O)C(=O)N[C@H](C(N)=O)[C@@H](C)O)[C@@H](C)CC)C(C)C)C(=O)O` [compound 38] (H-H[Aib]QGTFTSDK([γGlu-Palmitoyl])SKYLDEEAVRLFIEWLMNT-NH2; N-terminus assumed) returned a concentration for a half-maximal effect (EC50) of 0.019 nM.
With `CC[C@H](C)[C@H](NC(=O)[C@H](Cc1ccccc1)NC(=O)[C@H](CC(C)C)NC(=O)[C@H](CCCNC(=N)N)NC(=O)[C@@H](NC(=O)[C@H](C)NC(=O)[C@H](CCC(N)=O)NC(=O)[C@H](CCC(=O)O)NC(=O)[C@H](CC(=O)O)NC(=O)[C@H](CC(C)C)NC(=O)[C@H](Cc1ccc(O)cc1)NC(=O)[C@H](CCCCN)NC(=O)[C@H](CO)NC(=O)[C@H](Cc1ccc(O)cc1)NC(=O)[C@H](CC(=O)O)NC(=O)[C@H](CO)NC(=O)[C@@H](NC(=O)[C@H](Cc1ccccc1)NC(=O)[C@@H](NC(=O)CNC(=O)[C@H](CCC(N)=O)NC(=O)[C@@H](CO)NC(=O)[C@@H](N)Cc1c[nH]cn1)[C@@H](C)O)[C@@H](C)O)C(C)C)C(=O)N[C@@H](CS)C(=O)N[C@@H](Cc1c[nH]c2ccccc12)C(=O)N[C@@H](CC(C)C)C(=O)N[C@@H](CC(C)C)C(=O)N[C@@H](CC(=O)O)C(=O)N[C@H](C(N)=O)[C@@H](C)O` [compound 87] (H-H[dS]QGTFTSDYSKYLDEQAVRLFICWLLDT-NH2; N-terminus assumed), the EC50 on GLP-1 receptor (setting [2]) stood at 0.013 nM.
For `CSCC[C@H](NC(=O)[C@H](CC(C)C)NC(=O)[C@H](Cc1c[nH]c2ccccc12)NC(=O)[C@H](CCC(N)=O)NC(=O)[C@@H](NC(=O)[C@H](Cc1ccccc1)NC(=O)[C@H](CCC(=O)O)NC(=O)[C@H](CCCCN)NC(=O)[C@H](C)NC(=O)[C@H](CCCNC(=N)N)NC(=O)[C@H](CCCCN)NC(=O)C(C)(C)NC(=O)[C@H](CC(=O)O)NC(=O)[C@H](CC(C)C)NC(=O)[C@H](Cc1ccc(O)cc1)NC(=O)[C@H](CCCCN)NC(=O)[C@H](CO)NC(=O)[C@H](Cc1ccc(O)cc1)NC(=O)[C@H](CC(=O)O)NC(=O)[C@H](CO)NC(=O)[C@@H](NC(=O)[C@H](Cc1ccccc1)NC(=O)[C@@H](NC(=O)CNC(=O)[C@H](CCC(N)=O)NC(=O)[C@@H](CO)NC(=O)[C@@H](N)Cc1c[nH]cn1)[C@@H](C)O)[C@@H](C)O)C(C)C)C(=O)N[C@@H](CC(N)=O)C(=O)N[C@H](C(N)=O)[C@@H](C)O` [compound 21], the EC50 at GLP-1 receptor (setting [1]) came to 0.048 nM.
As to `CCCCCCCCCCCCCCCC(=O)N[C@@H](CCC(=O)NCCCC[C@H](NC(=O)[C@H](CC(=O)O)NC(=O)[C@H](CO)NC(=O)[C@@H](NC(=O)[C@H](Cc1ccccc1)NC(=O)[C@@H](NC(=O)CNC(=O)[C@H](CCC(N)=O)NC(=O)[C@H](CO)NC(=O)[C@H](Cc1c[nH]cn1)NC(C)=O)[C@@H](C)O)[C@@H](C)O)C(=O)N[C@@H](CO)C(=O)N[C@@H](CCCCN)C(=O)N[C@@H](Cc1ccc(O)cc1)C(=O)N[C@@H](CC(C)C)C(=O)N[C@@H](CC(=O)O)C(=O)N[C@@H](CCC(=O)O)C(=O)N[C@@H](CCC(N)=O)C(=O)N[C@@H](C)C(=O)N[C@@H](C)C(=O)N[C@@H](CCCCN)C(=O)N[C@@H](CCC(=O)O)C(=O)N[C@@H](Cc1ccccc1)C(=O)N[C@H](C(=O)N[C@@H](CS)C(=O)N[C@@H](Cc1c[nH]c2ccccc12)C(=O)N[C@@H](CC(C)C)C(=O)N[C@@H](CC(C)C)C(=O)N[C@@H](CC(=O)O)C(=O)N[C@H](C(N)=O)[C@@H](C)O)[C@@H](C)CC)C(=O)O` [compound 57] (Ac-HSQGTFTSDK([γGlu-Palmitoyl])SKYLDEQAAKEFICWLLDT-NH2), at glucagon receptor (Table 5), the “Activity at Glucagon Receptor % Relative Activity” value turned out to be 1%.
The compound `CCCCCCCCCCCCCCCC(=O)NCCCC[C@H](NC(=O)[C@H](CC(=O)O)NC(=O)[C@H](CO)NC(=O)[C@@H](NC(=O)[C@H](Cc1ccccc1)NC(=O)[C@@H](NC(=O)CNC(=O)[C@H](CCC(N)=O)NC(=O)C(C)(C)NC(=O)[C@@H](N)Cc1c[nH]cn1)[C@@H](C)O)[C@@H](C)O)C(=O)N[C@@H](CO)C(=O)N[C@@H](CCCCN)C(=O)N[C@@H](Cc1ccc(O)cc1)C(=O)N[C@@H](CC(C)C)C(=O)N[C@@H](CC(=O)O)C(=O)N[C@@H](CCC(=O)O)C(=O)N[C@@H](CCC(=O)O)C(=O)N[C@@H](C)C(=O)N[C@H](C(=O)N[C@@H](CCCNC(=N)N)C(=O)N[C@@H](CC(C)C)C(=O)N[C@@H](Cc1ccccc1)C(=O)N[C@H](C(=O)N[C@@H](CCC(=O)O)C(=O)N[C@@H](Cc1c[nH]c2ccccc12)C(=O)N[C@@H](CC(C)C)C(=O)N[C@@H](CCSC)C(=O)N[C@@H](CC(N)=O)C(=O)N[C@H](C(N)=O)[C@@H](C)O)[C@@H](C)CC)C(C)C` [compound 40] (H-H[Aib]QGTFTSDK(Palmitoyl)SKYLDEEAVRLFIEWLMNT-NH2; N-terminus assumed) came in with an EC50 at GLP-1 receptor (setting [2]) of 0.024 nM.
At GLP-1 receptor (GLP-1 Receptor EC50 (nM), Table 1, HEK293 cells co-transfected with receptor and CRE-luciferase), `CSCC[C@H](NC(=O)[C@H](CC(C)C)NC(=O)[C@H](Cc1c[nH]c2ccccc12)NC(=O)[C@H](CCC(N)=O)NC(=O)[C@@H](NC(=O)[C@H](Cc1ccccc1)NC(=O)[C@H](CCC(=O)O)NC(=O)[C@H](CCC(N)=O)NC(=O)[C@H](C)NC(=O)[C@H](CCCNC(=N)N)NC(=O)[C@H](CCCCN)NC(=O)[C@H](CO)NC(=O)[C@H](CC(=O)O)NC(=O)[C@H](CC(C)C)NC(=O)[C@H](Cc1ccc(O)cc1)NC(=O)[C@H](CCCCN)NC(=O)[C@H](CO)NC(=O)[C@H](Cc1ccc(O)cc1)NC(=O)[C@H](CC(=O)O)NC(=O)[C@H](CO)NC(=O)[C@@H](NC(=O)[C@H](Cc1ccccc1)NC(=O)[C@@H](NC(=O)CNC(=O)[C@H](CCC(N)=O)NC(=O)[C@H](CO)NC(=O)[C@@H](N)Cc1c[nH]cn1)[C@@H](C)O)[C@@H](C)O)C(C)C)C(=O)N[C@@H](CC(N)=O)C(=O)N[C@H](C(N)=O)[C@@H](C)O` [Peptide 1] returned an EC50 of 0.13 nM.

These data come from patent US8703701B2 (Indiana University Research and Technology Corporation, priority 2009, dated 2014).
